Some results are limits rather than exact numbers.

T1 sequence (Q13557 1-478 isoform Q13557-12): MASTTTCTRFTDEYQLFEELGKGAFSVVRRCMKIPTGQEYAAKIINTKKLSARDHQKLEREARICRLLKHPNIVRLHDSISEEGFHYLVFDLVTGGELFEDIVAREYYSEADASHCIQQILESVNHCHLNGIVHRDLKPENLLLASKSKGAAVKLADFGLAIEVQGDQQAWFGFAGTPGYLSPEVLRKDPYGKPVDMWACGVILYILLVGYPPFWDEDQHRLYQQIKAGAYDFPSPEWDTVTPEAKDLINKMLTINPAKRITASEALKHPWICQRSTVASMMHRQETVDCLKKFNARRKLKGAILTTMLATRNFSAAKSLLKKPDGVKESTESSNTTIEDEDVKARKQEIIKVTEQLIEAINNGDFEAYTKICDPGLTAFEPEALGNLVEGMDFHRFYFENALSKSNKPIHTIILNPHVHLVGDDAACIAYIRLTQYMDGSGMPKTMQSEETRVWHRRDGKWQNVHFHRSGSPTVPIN

One assay has as its target T1, Full-length, GST-tagged, human CaMKIIδ (Homo sapiens, UniProt Q13557).
T1 construct: Full-Length, Glutathione-S-Transferase(GST)-Tagged, Human CaMKIIδ was purchased from Carna Biosciences; purchased Carna Biosciences 02-111
The experiment in a line: CaMKIIδ binding assay (TR-FRET with BODIPY-labeled probe ligand). To be noted: CaMKIIδ binding assay, results of Table 2. On the procedure: In vitro CaMKIIδ inhibitory activity was evaluated by a binding assay.
Full-Length, Glutathione-S-Transferase(GST)-Tagged, Human CaMKIIδ was purchased from Carna Biosciences (product #02-111, Kobe, Japan). Full-length bovine calmodulin was purchased from Wako Pure Chemical Industries (Osaka, Japan). Terbium-labeled anti-GST antibody (Tb-anti-GST Ab) was purchased from Life Technologies (Carlsbad, Calif., USA). Boron-dipyrromethene (BODIPY)-labeled probe ligand was synthesized as described below.
Time-Resolved Fluorescence Resonance Energy Transfer (TR-FRET) Assay
All assays were conducted using 384-well, white, flat-bottomed plates (product #784075, Greiner Bio-One, Frickenhausen, Germany) in kinase assay buffer, which consists of 50 mM HEPES pH 7.6, 10 mM MgCl2, 1 mM EGTA, 0.01% Brig-35, 0.1 mM DTT). The fluorescent probe ligand was added at a final concentration of 300 nM to solutions containing 0.21 nM Tb-anti-GST Ab, 1 mM CaCl2), 10 μg/mL calmodulin, and 0.5 nM GST-tagged CaMKIIδ. After shaded incubation of the protein-probe mixture on ice for 30 min, the premix was dispensed in the assay plate including test inhibitors with 4 fold dilution series of eight concentrations. After 1 hr incubation at room temperature, TR-FRET signals were measured in duplicate using an EnVision microplate reader (Perkin Elmer, Waltham, Mass., USA). The solution in each well was excited with a laser (λ=340 nm) reflected by a dichroic mirror (D400/D505 (Perkin Elmer) through an excitation filter (UV (TRF) 340, (Perkin Elmer)), and fluorescence from Tb and BODIPY were detected through two emission filters (CFP 495 (Perkin Elmer) for Tb, Emission 520 (Perkin Elmer) for BODIPY).
The percentage of inhibition of test compounds was calculated according to equation (1) Inhibition (%)=100×([…]−T)/(μH−μL) (1)
Where T is the value of the wells containing test compounds and μH and μL are the mean values of the 0% and 100% inhibition control wells, respectively. The values of the 0 and 100% controls were the signals obtained in the absence and presence of 3 μM its parent compound, respectively. The half maximal inhibitory concentration (IC50) of test compounds was calculated by fitting the data with the logistic equation using XLfit (IDBS, Guildford, UK). The IC50 was classified according to the following activity ranks.
In general terms: TR-FRET usually uses a lanthanide donor and a delayed reading to cut background.
For the compound `COc1cc(C2=CCN(C3COC3)CC2)c(C)cc1Nc1ncc(-c2ccc(C#N)c(O[C@@H](C)Cn3cnnn3)c2)cn1` [Example 530, (S)-2-((1-(1H-tetrazol-1-yl)propan-2-yl)oxy)-4-(2-((2-methoxy-5-methyl-4-(1-(oxetan-3-yl)-1,2,3,6-tetrahydropyridin-4-yl)phenyl)amino)pyrimidin-5-yl)benzonitrile], the IC50 (commonly the concentration needed to halve the response being measured) was less than 10 nM.

In turn, `COc1cc2c(cc1Nc1ncc(-c3ccc(Cl)c(O[C@@H](C)Cn4cnnn4)c3)cn1)CCNC2` [Example 465, (S)-N-(5-(3-((1-(1H-tetrazol-1-yl)propan-2-yl)oxy)-4-chlorophenyl)pyrimidin-2-yl)-7-methoxy-1,2,3,4-tetrahydroisoquinolin-6-amine] gave an IC50 of less than 10 nM. In turn, `C[C@@H](Cn1cnnn1)Oc1cc(-c2cnc(Nc3cn(C4CCN(C5CCC(F)(F)CC5)CC4)nc3C(F)(F)F)nc2)ccc1Cl` [Example 555, (S)-5-(3-((1-(1H-tetrazol-1-yl)propan-2-yl)oxy)-4-chlorophenyl)-N-(1-(1-(4,4-difluorocyclohexyl)piperidin-4-yl)-3-(trifluoromethyl)-1H-pyrazol-4-yl)pyrimidin-2-amine] displayed an IC50 of less than 10 nM. Compound `COc1ccc(CN2CCOCC2)cc1Nc1ncc(-c2ccc(Cl)c(O[C@@H](C)Cn3cnnn3)c2)cn1` [Example 448, (S)-5-(3-((1-(1H-tetrazol-1-yl)propan-2-yl)oxy)-4-chlorophenyl)-N-(2-methoxy-5-(morpholinomethyl)phenyl)pyrimidin-2-amine] came in with an IC50 of 10 to 100 nM. Same read-out and setting: the value for `COc1cc2c(cc1Nc1ncc(-c3ccc(Cl)c(O[C@@H](C)Cn4cnnn4)c3)cn1)CN(C1COC1)CCO2` [Example 454, (S)-N-(5-(3-((1-(1H-tetrazol-1-yl)propan-2-yl)oxy)-4-chlorophenyl)pyrimidin-2-yl)-8-methoxy-4-(oxetan-3-yl)-2,3,4,5-tetrahydrobenzo[f][1,4]oxazepin-7-amine] was no less than 100 nM.

Staying with this assay, now noted: CaMKIIδ binding assay; activity class per Table 2.
Turning to `C[C@@H](Cn1cnnn1)Oc1cc(-c2cnc(Nc3cn(C4CC5(C4)CN(C4COC(C)(C)OC4)C5)nc3OCC(F)(F)F)nc2)ccc1Cl` [Example 932, (S)-5-(3-((1-(1H-tetrazol-1-yl)propan-2-yl)oxy)-4-chlorophenyl)-N-(1-(2-(2,2-dimethyl-1,3-dioxan-5-yl)-2-azaspiro[3.3]heptan-6-yl)-3-(2,2,2-trifluoroethoxy)-1H-pyrazol-4-yl)pyrimidin-2-amine], the half-maximal inhibitory concentration (IC50) was less than 10 nM. Still for that read-out and setting: then `C[C@@H](Cn1cnnn1)Oc1cc(-c2cnc(Nc3cn([C@@H]4CCNC[C@H]4O)nc3C(F)(F)F)nc2)ccc1Cl` (mixture of isomers) [Example 892, trans-4-(4-((5-(3-(((S)-1-(1H-tetrazol-1-yl)propan-2-yl)oxy)-4-chlorophenyl)pyrimidin-2-yl)amino)-3-(trifluoromethyl)-1H-pyrazol-1-yl)piperidin-3-ol], with less than 10 nM; and `C[C@@H](Cn1cnnn1)Oc1cc(-c2cnc(Nc3cn([C@@H]4CCN(C5CCOCC5)C[C@H]4O)nc3C(F)(F)F)nc2)ccc1Cl` (mixture of isomers) [Example 897, trans-4-(4-((5-(3-(((S)-1-(1H-tetrazol-1-yl)propan-2-yl)oxy)-4-chlorophenyl)pyrimidin-2-yl)amino)-3-(trifluoromethyl)-1H-pyrazol-1-yl)-1-(tetrahydro-2H-pyran-4-yl)piperidin-3-ol], with less than 10 nM.

The same assay, now with this note: Table 2; CaMKIIδ binding assay, activity given as class A/B/C.
For the compound `C[C@@H](Cn1cnnn1)Oc1cc(-c2cnc(Nc3cn([C@H]4CC[C@H](N5CCOCC5)CC4)nc3OC3COC3)nc2)ccc1Cl` [Example 821, 5-(3-(((S)-1-(1H-tetrazol-1-yl)propan-2-yl)oxy)-4-chlorophenyl)-N-(1-(trans-4-morpholinocyclohexyl)-3-(oxetan-3-yloxy)-1H-pyrazol-4-yl)pyrimidin-2-amine], the IC50 is less than 10 nM. On the same count and under the same terms, then `C[C@@H](Cn1cc(F)cn1)Oc1cc(-c2cnc(Nc3cn([C@H]4CC[C@H](N5CCOCC5)CC4)nc3OCC(F)(F)F)nc2)ccc1C#N` [Example 830, 2-(((S)-1-(4-fluoro-1H-pyrazol-1-yl)propan-2-yl)oxy)-4-(2-((1-(trans-4-morpholinocyclohexyl)-3-(2,2,2-trifluoroethoxy)-1H-pyrazol-4-yl)amino)pyrimidin-5-yl)benzonitrile], with less than 10 nM; and `C[C@@H](Cn1cnnn1)Oc1cc(-c2cnc(Nc3cn([C@H]4C[C@@H](NC5CCOCC5)C4)nc3OCC(F)F)nc2)ccc1Cl` [Example 850, (S)-5-(3-((1-(1H-tetrazol-1-yl)propan-2-yl)oxy)-4-chlorophenyl)-N-(3-(2,2-difluoroethoxy)-1-(cis-3-((tetrahydro-2H-pyran-4-yl)amino)cyclobutyl)-1H-pyrazol-4-yl)pyrimidin-2-amine], with less than 10 nM.

The same assay, now with this note: Table 2; activity class for CaMKIIδ.
On to `C[C@@H](Cn1cnnn1)Oc1cc(-c2cnc(Nc3cn(Cc4nc5ccccc5[nH]4)nc3C(F)(F)F)nc2)ccc1Cl` [Example 658, (S)-N-(1-((1H-benzo[d]imidazol-2-yl)methyl)-3-(trifluoromethyl)-1H-pyrazol-4-yl)-5-(3-((1-(1H-tetrazol-1-yl)propan-2-yl)oxy)-4-chlorophenyl)pyrimidin-2-amine], for which the IC50 lay within 10 to 100 nM.

The compound `COc1cc2c(cc1Nc1ncc(-c3ccc(C#N)c(O[C@@H](C)Cn4cnnn4)c3)cn1)NCCC2` [Example 590, (S)-2-((1-(1H-tetrazol-1-yl)propan-2-yl)oxy)-4-(2-((6-methoxy-1,2,3,4-tetrahydroquinolin-7-yl)amino)pyrimidin-5-yl)benzonitrile] had a half-maximal inhibitory concentration (IC50) of less than 10 nM. As for `COc1nc(N2CCNCC2)ccc1Nc1ncc(-c2ccc(Cl)c(O[C@@H](C)Cn3cnnn3)c2)cn1` [Example 614, (S)-5-(3-((1-(1H-tetrazol-1-yl)propan-2-yl)oxy)-4-chlorophenyl)-N-(2-methoxy-6-(piperazin-1-yl)pyridin-3-yl)pyrimidin-2-amine], the IC50 is less than 10 nM.

With `COc1cc2c(cc1Nc1ncc(-c3ccc(Cl)c(O[C@@H](C)Cn4cnnn4)c3)cn1)N(C(=O)C(F)(F)F)CCC2` [Example 586, (S)-1-(7-((5-(3-((1-(1H-tetrazol-1-yl)propan-2-yl)oxy)-4-chlorophenyl)pyrimidin-2-yl)amino)-6-methoxy-3,4-dihydroquinolin-1(2H)-yl)-2,2,2-trifluoroethan-1-one], the IC50 is no less than 100 nM. Still for that read-out and setting: then `C[C@@H](Cn1cnnn1)Oc1cc(-c2cnc(Nc3cn(CC4CCCO4)nc3C(F)(F)F)nc2)ccc1Cl` (stereo partly drawn) [Example 710, 5-(3-(((S)-1-(1H-tetrazol-1-yl)propan-2-yl)oxy)-4-chlorophenyl)-N-(1-((tetrahydrofuran-2-yl)methyl)-3-(trifluoromethyl)-1H-pyrazol-4-yl)pyrimidin-2-amine], with 10 to 100 nM; and `COc1nc(N2CCN(C(=O)C(F)(F)F)CC2)ccc1Nc1ncc(-c2ccc(Cl)c(O[C@@H](C)Cn3cnnn3)c2)cn1` [Example 638, (S)-1-(4-(5-((5-(3-((1-(1H-tetrazol-1-yl)propan-2-yl)oxy)-4-chlorophenyl)pyrimidin-2-yl)amino)-6-methoxypyridin-2-yl)piperazin-1-yl)-2,2,2-trifluoroethan-1-one], with no less than 100 nM.
